Assay results published in patent US11890288B2, “Sulfonamide or sulfinamide compound having effect of inducing BRD4 protein degradation and pharmaceutical use thereof” (MITSUBISHI TANABE PHARMA CORPORATION, priority 2020, dated 2024).

Legend:
BRD4 protein [1] = molecular target: T1, BRD4 protein (Homo sapiens (Human), UniProt O60885); experiment: Inhibitory action on binding of BRD4 protein and acetylated histone H4 (TR-FRET); conditions: BRD4-1 (GST) and acetylated histone H4 peptide, 3 hr
Procedure: The inhibitory action of the compound of the present invention on the binding of BRD4 protein and a ligand thereof (acetylated histone H4) was evaluated by the time-resolved fluorescence resonance energy transfer (TR-FRET) method using EPIgeneous™ Binding Domain Kit A (Cisbio), BRD4-1 (GST) (Reaction Biology Corp) and [Lys(Ac)5/8/12/16]-Histone H4(1-21)-GGK (Biotin) (Eurogentec). In this experiment, (+)-JQ1 (Nature volume 468, pages 1067-1073 (23 Dec. 2010)) known to have an inhibitory activity on the binding of BRD4 protein and acetylated histone H4 therefor was used as a positive control drug. A test compound dissolved in DMSO was diluted with attached Diluent Buffer, added to a 384 well white plate, and BRD4-1 (GST) and [Lys(Ac)5/8/12/16]-Histone H4(1-21)-GGK (Biotin) were further added. Thereafter, Streptavidin-d2 conjugate and Anti-GST-Eu^3+ Cryptate Conjugate were added and the cells were incubated at room temperature for 3 hr. The binding amount of the BRD4 protein and acetylated histone H4 was measured as the fluorescence intensity (excitation: 314 nm/emission: 620 nm and excitation: 314 nm/emission: 665 nm). […] It was calculated from the straight line connecting the degradation rate at two points enclosing the 50% fluorescence intensity and the compound concentration.

[2] = system: human prostate cancer LNCaP cells; experiment: Cytotoxic action on LNCaP cells (WST-8, 96 hr); type: cell-based; conditions: 96 hr culture
In short: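 Overnight pre-culture (10% FBS/RPMI1640, 37° C, 5% CO2) → compound from DMSO stock diluted in medium → 96 hr → WST-8 viable count. IC50 = conc. at 50% survival vs untreated, linear interpolation. (+)-JQ1 as positive control.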

MDA-MB-436 w/o2 cells = experiment: Cytotoxic action on MDA-MB-436 w/o2 cells that acquired resistance to conventional BRD4 degraders (WST-8, 96 hr); type: cell-based, human
Procedure: (§1) The cytotoxic action of the compound of the present invention against cancer cells that acquired resistance to conventional BRD4 protein degradation inducing agents was evaluated in vitro. In this experiment, ARV-771 (Proc Natl Acad Sci USA. volume 113, pages 7124-7129 (28 Jun. 2016)) and MZ1 (ACS Chem Biol. Volume 10, pages 1770-1777 (21 Aug. 2015)), in which a ligand for VHL and BRD4 protein inhibitor are linked, were used as a conventional BRD4 protein degradation inducing agent serving as a comparison control. Human breast cancer MDA-MB-436 cells and MDA-MB-436 cells that acquired resistance to conventional BRD4 protein degradation inducing agents (MDA-MB-436 w/o2 cells) were suspended in 10% FBS/RPMI1640, seeded in a 96 well plate and cultured at 5% CO2, 37° C. overnight. A test compound dissolved in DMSO was diluted with 10% FBS/RPMI1640 and added and the cells were further cultured for 96 hr. After culturing, the viable cell number was measured using a cell number measurement WST-8 kit (Kishida Chemical Co., Ltd.). As a control, the measurement was performed under conditions free of the test compound. The cytotoxic activity of the compound of the present invention against each cell is shown in IC50 value in Table 4. The IC50 value is a concentration of the compound showing 50% cell survival rate when the cell survival rate thereof under compound untreated condition is 100%. It was calculated from the straight line connecting the cell survival rate at two points enclosing the 50% cell survival rate and the compound concentration. In addition, the tolerance (fold) was calculated by dividing the IC50 value in MDA-MB-436 w/o2 cells by the IC50 value in MDA-MB-436 cells.

BRD4 protein [3] = molecular target: T1, BRD4 protein; experiment: BRD4 protein degradation inducing action in LNCaP cells (immunofluorescence, 6 hr); type: cell-based; conditions: anti-BRD4 fluorescence intensity
In short: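 Read-out is BRD4 immunofluorescence intensity (560/572 nm) after 6 hr compound treatment of LNCaP cells in 10% FBS/RPMI1640, with fixation, permeabilization and anti-BRD4 staining. Linear interpolation between the two concentrations flanking 50% of untreated intensity gives DC50.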

[4] = system: Human breast cancer MDA-MB-436 cells; experiment: Cytotoxic action on MDA-MB-436 cells (WST-8, 96 hr); type: cell-based; conditions: Homo sapiens
Procedure: as §1

IC50 (BRD4 protein [1]): 5.7 nM
DC50 (BRD4 protein [3]): 0.083 nM
SMILES: COC(=O)C[C@@H]1N=C(c2ccc(-c3ccc(C(=O)NCCc4ccc(S(=O)(=O)Nc5ccc(C)c6c(C#N)c[nH]c56)cc4)cc3)cc2)c2c(sc(C)c2C)-n2c(C)nnc21 [Example 11, methyl [(6S)-4-{4′-[(2-{4-[(3-cyano-4-methyl-1H-indol-7-yl)sulfamoyl]phenyl}ethyl)carbamoyl][1,1′-biphenyl]-4-yl}-2,3,9-trimethyl-6H-thieno[3,2-f][1,2,4]triazolo[4,3-a][1,4]diazepin-6-yl]acetate]
IC50 [2]: 0.074 nM
IC50 (MDA-MB-436 w/o2 cells; Homo sapiens, MDA-MB-436 w/o2 cells, 96 hr): 0.31 nM
resistance (MDA-MB-436 w/o2 cells; IC50 in MDA-MB-436 w/o2 cells divided by IC50 in MDA-MB-436 cells): 1.2 fold
IC50 [4]: 0.27 nM
